These results are taken from patent publication EP3928779A1 (Chugai Seiyaku Kabushiki Kaisha, priority 2014, dated 2016).

The test system of this assay is rat small-intestinal brush border membrane vesicles. Put plainly: Inhibitory effect on 33PO4 uptake into rat small-intestinal brush border membrane vesicles (rapid filtration method). The format is biochemical. Particulars: 33PO4 uptake into rat small-intestinal BBMVs; test compound 1 µM; reacted for 60 seconds. A digest of the protocol:
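Uptake of ^33PO4 was measured by rapid filtration and liquid scintillation counting of filter-retained vesicles, after quenching with ice-cold 110 mM NaCl/1 mM KH2PO4/10 mM HEPES pH 7.5. Vesicles were brush border membranes from the upper small intestine of female Wistar rats aged 4–5 weeks.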
Regarding `CN(CCOCCC(=O)N(C)C[C@H](O)[C@@H](O)[C@H](O)[C@H](O)CO)CCOc1ccc(CN2C(=O)C(C(=O)Nc3ccc(C(F)(F)F)cc3-c3cc(C(F)(F)F)ncn3)=C(O)C3(CCCC3)N2C)c(F)c1F` [Example 425], the “Rate of uptake inhibition (%) (1 µM)” value is listed as 5%.

“(4aS)-1-[(5,6-Difluoro-1H-indol-7-yl)methyl]-4-hydroxy-N-[5-methyl-2-(trifluoromethyl)furan-3-yl]-2-oxo-5,6,7,8-tetrahydro-4aH-pyrido[1,2-b]pyridazine-3-carboxamide [Example 17]”: the “Rate of uptake inhibition (%) (1 µM)” value stood at 33%.

For the compound “(4aR)-1-[(2,3-Difluorophenyl)methyl]-4-hydroxy-4a-methyl-N-[5-methyl-2-(trifluoromethyl)furan-3-yl]-2-oxo-6,7-dihydro-5H-pyrrolo[1,2-b]pyridazine-3-carboxamide [Example 7]”, the “Rate of uptake inhibition (%) (1 µM)” value came to 69%.

Turning to `CN1N(Cc2ccc(OCCCCCOC[C@H](O)CO)c(F)c2F)C(=O)C(C(=O)Nc2ccc(C(F)(F)F)cc2-c2cc(C(F)(F)F)ncn2)=C(O)C12CCC2` [Example 391], the “Rate of uptake inhibition (%) (1 µM)” value came to 42%.

For the compound `C[C@]12CCCN1N(Cc1ccc(F)cc1F)C(=O)C(C(=O)Nc1ccc(C(F)(F)F)cc1-c1ccc(C(F)(F)F)nc1)=C2O` [Example 173], the “Rate of uptake inhibition (%) (1 µM)” value stood at 73%.

As to `C[C@]12CCCN1N(Cc1c(Cl)cc(OCCN3CCOCC3)cc1Cl)C(=O)C(C(=O)Nc1ccc(C(F)(F)F)nc1-c1ccc(C(F)(F)F)nc1)=C2O.Cl` [Example 148, (4aR)-1-[[2,6-Dichloro-4-(2-morpholin-4-ylethoxy)phenyl]methyl]-4-hydroxy-4a-methyl-2-oxo-N-[6-(trifluoromethyl)-2-16-(trifluoromethyl)pyridin-3-yl]pyridin-1-yl]-6,7-dihydro-5H-pyrrolo[1,2-bipyridazine-3-carboxamide hydrochloride], the “Rate of uptake inhibition (%) (1 µM)” value was found to be 75%.

`CN1N(Cc2ccc(OCCCCOCCO)c(F)c2F)C(=O)C(C(=O)Nc2ccc(C(F)(F)F)cc2-c2cc(C(F)(F)F)ncn2)=C(O)C12CCCC2` [Example 396]: the “Rate of uptake inhibition (%) (1 µM)” value came out at 38%.

With `C[C@]12CCCN1N(Cc1ccccc1C#N)C(=O)C(C(=O)Nc1cc(F)c(Br)c(F)c1)=C2O` [Example 218], the “Rate of uptake inhibition (%) (1 µM)” value was found to be 82%.

In the case of `COc1cccc(-c2cc(C(F)(F)F)ccc2NC(=O)C2=C(O)[C@@]3(C)CCCN3N(Cc3ccc(C#CCOCCO)c(F)c3F)C2=O)c1OC` [Example 137], the “Rate of uptake inhibition (%) (1 µM)” value came out at 92%.

Take `C[C@]12CCCN1N(Cc1cc(F)ccc1F)C(=O)C(C(=O)Nc1ccc(C(F)(F)F)cc1-c1ccc(C(F)(F)F)nc1)=C2O` [Example 172]: the “Rate of uptake inhibition (%) (1 µM)” value was 72%.

“(4aS)-1-[(3-Fluorophenyl)methyl]-4-hydroxy-4a-methyl-N-[5-methyl-2-(trifluoromethyl)furan-3-yl]-2-oxo-6,7-dihydro-5H-pyrrolo[1,2-b]pyridazine-3-carboxamide [Example 8]”: the “Rate of uptake inhibition (%) (1 µM)” value is reported as 37%.

For the compound `CN1N(Cc2ccc(OCCNCCS(=O)(=O)O)c(F)c2F)C(=O)C(C(=O)Nc2ccc(C(F)(F)F)cc2-c2cc(C(F)(F)F)ncn2)=C(O)C12CCCC2` [Example 435, 2-[2-[2,3-Difluoro-4-[[10-hydroxy-6-methyl-8-oxo-9-[[4-(trifluoromethyl)-2-[6-(trifluoromethyl)pyrimidin-4-yl]phenyl]carbamoyl]-6,7-diazaspiro[4.5]dec-9-en-7-yl]methyl]phenoxy]ethylamino]ethanesulfonic acid], the “Rate of uptake inhibition (%) (1 µM)” value is 11%.

As for `COCCCN(C)C(=O)c1cc(CN2C(=O)C(C(=O)Nc3ccc(C(F)(F)F)cc3-c3cc(C(F)(F)F)ncn3)=C(O)C3(CCCC3)N2C)c(F)c(F)c1OCCN(C)CCOC` [Example 438, 7-[[2,3-Difluoro-4-[2-[2-methoxyethyl(methyl)amino]ethoxy]-5-[3-methoxypropyl(methyl)carbamoyl]phenyl]methyl]-10-hydroxy-6-methyl-8-oxo-N-[4-(trifluoromethyl)-2-[6-(trifluoromethyl)pyrimidin-4-yl]phenyl]-6,7-diazaspiro[4.5]dec-9-ene-9-carboxamide], the “Rate of uptake inhibition (%) (1 µM)” value was determined as 33%.

In the case of `CN1N(Cc2ccc(NCCCN3CCOCC3)c(F)c2F)C(=O)C(C(=O)Nc2ccc(C(F)(F)F)cc2-c2cc(C(F)(F)F)ncn2)=C(O)C12CCCC2` [Example 446], the “Rate of uptake inhibition (%) (1 µM)” value is given as 31%.

On to `Cc1nc(NC(=O)C2=C(O)C3(CCCC3)N(C)N(Cc3cccc(F)c3F)C2=O)ccc1Br` [Example 262], for which the “Rate of uptake inhibition (%) (1 µM)” value is on record as 43%.

Regarding `CN1N(Cc2ccc(OCCOCCOCCOCCNC(=O)[C@@H](O)[C@H](O)[C@@H](O)[C@@H](O)CO)c(F)c2F)C(=O)C(C(=O)Nc2ccc(C(F)(F)F)cc2-c2cc(C(F)(F)F)ncn2)=C(O)C12CCCC2` [Example 428, 7-[[2,3-Difluoro-4-[2-[2-[2-[2-[[(2S,3R,4S,5S)-2,3,4,5,6-pentahydroxyhexanoyl]amino]ethoxy]ethoxy]ethoxy]ethoxy]phenyl]methyl]-10-hydroxy-6-methyl-8-oxo-N-[4-(trifluoromethyl)-2-[6-(trifluoromethyl)pyrimidin-4-yl]phenyl]-6,7-diazaspiro[4. 5]dec-9-ene-9-carboxamide], the “Rate of uptake inhibition (%) (1 µM)” value is listed as 14%.

In the case of `CN1N(Cc2ccc(OCCN3CCOCC3)c(F)c2F)C(=O)C(C(=O)Nc2ccc(C(F)(F)F)cc2-c2cc(C(F)(F)F)ncn2)=C(O)C12CCCC2` [Example 318, 7-[[2,3-Difluoro-4-(2-morpholin-4-ylethoxy)phenyl]methyl]-10-hydroxy-6-methyl-8-oxo-N-[4-(trifluoromethyl)-2-[6-(tritluoromethyl)pyrimidin-4-yl]phenyl]-6,7-diazaspiro[4.5]dec-9-ene-9-carboxamide], the “Rate of uptake inhibition (%) (1 µM)” value is 43%.

For the compound `CC(C)[C@@H]1C(O)=C(C(=O)Nc2ccc(Cl)cc2-c2ccc(C(F)(F)F)nc2)C(=O)N(Cc2cccc(F)c2F)N1C` [Example 251], the “Rate of uptake inhibition (%) (1 µM)” value amounted to 43%.

Regarding `COc1cccc(-c2cc(C(F)(F)F)ccc2NC(=O)C2=C(O)[C@@]3(C)CCCN3N(Cc3ccc(C#CCOCCCO)c(F)c3F)C2=O)c1OC` [Example 127], the “Rate of uptake inhibition (%) (1 µM)” value is recorded as 95%.

`C[C@]12CCCN1N(Cc1cccc(Cl)c1F)C(=O)C(C(=O)Nc1ccc(C(F)(F)F)cc1-c1cc(C(F)(F)F)ncn1)=C2O` [Example 209]: the “Rate of uptake inhibition (%) (1 µM)” value is 76%.

Take `COc1cccc(-c2cc(C(F)(F)F)ccc2NC(=O)C2=C(O)[C@@]3(C)CCCN3N(Cc3ccc(OC4CCOCC4)c(F)c3F)C2=O)c1OC` [Example 158]: the “Rate of uptake inhibition (%) (1 µM)” value is 84%.

For `CN(CCO)CCOc1ccc(CN2C(=O)C(C(=O)Nc3ccc(C(F)(F)F)cc3-c3cc(C(F)(F)F)ncn3)=C(O)C3(CCCC3)N2C)c(F)c1F` [Example 373], the “Rate of uptake inhibition (%) (1 µM)” value was found to be 27%.

On to `CN1[C@@H](C(C)(C)C)C(O)=C(C(=O)Nc2ccc(Cl)cc2-c2cc(C(F)(F)F)ncn2)C(=O)N1Cc1ccc(OCCN2CCOCC2)c(F)c1F` [Example 265, (3S)-3-tert-Butyl-N-[4-chloro-2-[6-(trinuoromethyl)pyrimidin-4-yl]phenyl]-1-[[2,3-difluoro-4-(2-morpholin-4-ylethoxy)phenyl]methyl]-4-hydroxy-2-methyl-6-oxo-3H-pyridazine-5-carboxamide], for which the “Rate of uptake inhibition (%) (1 µM)” value is reported as 52%.

For the compound `Cc1cc(NC(=O)C2=C(O)[C@@H]3CC(C)(C)CN3N(Cc3cccc(F)c3)C2=O)c(C(F)(F)F)o1` [Example 3], the “Rate of uptake inhibition (%) (1 µM)” value came to 11%.

Take `COCCN(C)CCOCCOc1ccc(CN2C(=O)C(C(=O)Nc3ccc(C(F)(F)F)cc3-c3cc(C(F)(F)F)ncn3)=C(O)C3(CCCC3)N2C)c(F)c1F` [Example 429, 7-[[2,3-Difluoro-4-[2-[2-[2-methoxyethyl(methyl)amino]ethoxy]ethoxy]phenyl]methyl]-10-hydroxy-6-methyl-8-oxo-N-[4-(trifluoromethyl)-2-[6-(trifluoromethyl)pyrimidin-4-yl]phenyl]-6,7-diazaspiro[4.5]dec-9-ene-9-carboxamide]: the “Rate of uptake inhibition (%) (1 µM)” value turned out to be 41%.

On to `CSc1ncc(-c2cc(C(F)(F)F)ccc2NC(=O)C2=C(O)[C@@]3(C)CCCN3N(Cc3ccc(OCCN4CCOCC4)c(F)c3F)C2=O)cn1` [Example 104], for which the “Rate of uptake inhibition (%) (1 µM)” value was 73%.

Turning to `CN1N(Cc2cccc(F)c2F)C(=O)C(C(=O)Nc2ccc(Br)c(C(F)(F)F)n2)=C(O)C12CCC2` [Example 258], the “Rate of uptake inhibition (%) (1 µM)” value was 87%.

Turning to `CN1[C@@H](C(C)(C)C)C(O)=C(C(=O)Nc2ccc(Br)c(C(F)(F)F)n2)C(=O)N1Cc1cccc(F)c1F` [Example 242], the “Rate of uptake inhibition (%) (1 µM)” value is on record as 69%.

For `COc1cncc(-c2cc(C(F)(F)F)ccc2NC(=O)C2=C(O)[C@@]3(C)CCCN3N(Cc3cccc(F)c3F)C2=O)c1` [Example 81], the “Rate of uptake inhibition (%) (1 µM)” value stood at 74%.

Consider `C[C@]12CCCN1N(Cc1c(F)cc(OCCCCCCOC[C@@H](O)CO)cc1F)C(=O)C(C(=O)Nc1ccc(C(F)(F)F)cc1-c1ccc(C(F)(F)F)nc1)=C2O` [Example 154], for which the “Rate of uptake inhibition (%) (1 µM)” value is given as 73%.

On to `CSc1ccc(-c2cc(C(F)(F)F)ccc2NC(=O)C2=C(O)C3(CCCC3)N(C)N(Cc3ccc(OCCN4CCOCC4)c(F)c3F)C2=O)cn1` [Example 289], for which the “Rate of uptake inhibition (%) (1 µM)” value is on record as 55%.

With `COC(=O)c1cccc(-c2cc(C(F)(F)F)ccc2NC(=O)C2=C(O)[C@@]3(C)CCCN3N(Cc3cccc(F)c3F)C2=O)c1OC` [Example 65], the “Rate of uptake inhibition (%) (1 µM)” value was 98%.
